Measurements: patent US20150044144A1, “DISINFECTANT SOLUTION” (RAYMAT MATERIALS, INC., priority 2012, published 2015)

Experiment: Screening stability of different colorants with ORP by UV-Vis
Conditions: 300 ppm colorant; for Colour / UV-vis stability of colorant in ORP solution: 25° C., vs control water solution

COc1cc(S(=O)(=O)[O-])c(C)cc1N=Nc1c(O)ccc2cc(S(=O)(=O)[O-])ccc12.[Na+].[Na+] [Food dye FD&C red 40]
UV-visible absorbance of the colored ORP solution (high and low FAC ORP solutions, after 10 days): decreased significantly

O=C1OC2(c3ccccc31)c1cc(Br)c(O)c(Br)c1Oc1c2cc(Br)c(O)c1Br [Eosine Free Acid Solvent Red 43 D&C red 21]
Colour / UV-vis stability of colorant in ORP solution (low concentration ORP (30 ppm FAC)): the red color disappeared quickly

O=C([O-])c1ccccc1-c1c2cc(Br)c(=O)c(Br)c-2oc2c(Br)c([O-])c(Br)cc12.[Na+].[Na+] [Eosine YS Acid Red 87 D&C red 22]
Colour / UV-vis stability of colorant in ORP solution (high concentration ORP (100 ppm FAC)): the red color disappeared quickly
